Source: patent US20170350889A1, “CELL IDENTIFICATION METHOD” (Centre National De La Recherche Scientifique (CNRS), priority 2014, published 2017)

System: macaques
Test: Replication of the SIV virus expressing Cre recombinase after infection in macaques (viral RNA in plasma)
Format: in vivo
Settings: one macaque infected, FIG. 17
Description: FIG. 17 is a graph showing the replication of the SIV virus expressing Cre recombinase evaluated by the number of copies of viral RNA/ml of plasma (y-axis) after infection in macaques, as a function of time (in days).
The dose and the route of infection are able to be modified as a function of the scientific aims of the experimentation. A method is briefly described below: • Infect the macaques intravenously (50 AID50) or mucosally (50-5000 AID50). • Monitor the viral load in kinetic conditions by quantification of the viral RNAs in the plasma of the infected animals.

SIVmac239-Nef-IRES-Cre: SIVmac239 virus expressing Cre recombinase via Nef-IRES-Cre (SEQ ID NO: 25; plasmid SEQ ID NO: 13)
replication dynamics (copies of viral RNA/ml of plasma over time): normal replication dynamics
